For this test, the target named is T1, acetylcholinesterase (AChE) (Homo sapiens, UniProt P22303).
T1 construct: derived from human erythrocytes (Sigma)
The test can be described thus: Ellman spectrophotometric assay, acetylthiocholine hydrolysis at […] nm. Type of test: biochemical. For orientation: DTNB colorimetry detects thiols as they appear.

Structures are written as SMILES. pIC50: −log10 of the molar value.

Experimental findings from publication PMC9078504, “Antiacetylcholinesterase triterpenes from the fruits of Cimicifuga yunnanensis” (RSC Advances, 2018) are described below.

As a reminder, the pIC50 is −log10 of the IC50, conventionally taken in molar units. Higher therefore signals a low IC50.

T1 sequence (P22303 32-614): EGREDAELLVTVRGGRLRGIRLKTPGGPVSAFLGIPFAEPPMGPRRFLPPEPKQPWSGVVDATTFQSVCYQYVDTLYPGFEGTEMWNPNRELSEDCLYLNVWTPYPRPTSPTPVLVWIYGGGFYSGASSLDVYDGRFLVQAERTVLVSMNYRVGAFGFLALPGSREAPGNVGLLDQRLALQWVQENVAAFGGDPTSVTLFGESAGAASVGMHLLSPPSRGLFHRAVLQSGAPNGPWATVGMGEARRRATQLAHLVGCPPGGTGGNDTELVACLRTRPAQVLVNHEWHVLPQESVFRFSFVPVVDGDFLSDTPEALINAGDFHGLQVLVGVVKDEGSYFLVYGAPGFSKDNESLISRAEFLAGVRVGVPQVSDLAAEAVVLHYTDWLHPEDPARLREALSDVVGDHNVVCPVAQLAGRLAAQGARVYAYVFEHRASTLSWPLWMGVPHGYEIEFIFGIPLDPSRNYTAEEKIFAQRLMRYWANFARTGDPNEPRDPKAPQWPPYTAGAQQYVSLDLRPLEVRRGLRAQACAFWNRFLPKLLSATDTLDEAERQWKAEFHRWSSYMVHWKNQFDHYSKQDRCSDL

Compound `CC(=O)O[C@@H]1C[C@@]23C[C@@]24CC[C@H](O[C@@H]2OC[C@H](O)[C@H](O)[C@H]2O)C(C)(C)[C@@H]4CC=C3[C@]2(C)C(=O)C(=O)[C@@]3(O[C@@H]([C@H](O)C(C)(C)O)C[C@H]3C)[C@@]12C` [compound 1, (3β,12β,17S,20R,23R,24S)-17,23-Epoxy-15,16-dione-12-acetoxy-3,25-dihydroxy-7-en-9,19-cycloart-3-O-α-larabinopyranoside] gave a negative-log IC50 (pIC50) of 5.80. `Cc1cc(C=O)nc2c1[C@@]1(C)C[C@H](O)[C@@]34C[C@@]35CC[C@H](O[C@@H]3OC[C@H](O)[C@H](O)[C@H]3O)C(C)(C)[C@@H]5CC=C4[C@]1(C)C2` [compound 2, (3β,11β)-11-Hydroxy-16,23-nitrilo-7,17(20),22-trien-24-formyl-25,26,27-trinor-9,19-cycloart-3-O-α-larabinopyranoside] had a pIC50 of 5.41.
